Here are results for 28 compounds from patent US9181214B2 (RHIZEN PHARMACEUTICALS SA, priority 2011, dated 2015).

Series [1] addresses T1, human GPR119 (Homo sapiens, UniProt Q8TDV5).
T1 construct: expressed in transfected cells; host or cells: HEK293 (transient transfection, Lipofectamine 2000)
T1 sequence (Q8TDV5 1-335): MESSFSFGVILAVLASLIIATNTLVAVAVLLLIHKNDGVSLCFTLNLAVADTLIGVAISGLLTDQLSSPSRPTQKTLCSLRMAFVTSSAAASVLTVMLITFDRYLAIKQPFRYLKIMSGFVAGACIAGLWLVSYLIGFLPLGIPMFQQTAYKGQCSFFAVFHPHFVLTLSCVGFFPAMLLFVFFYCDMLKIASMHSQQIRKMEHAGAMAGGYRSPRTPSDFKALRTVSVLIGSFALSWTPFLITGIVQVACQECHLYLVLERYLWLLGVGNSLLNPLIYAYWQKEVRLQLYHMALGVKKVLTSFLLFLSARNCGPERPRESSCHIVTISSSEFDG
Nature of the series: In vitro cyclic AMP assay (Cisbio HTRF) in HEK293 cells transfected with human GPR119. In kind it is cell-based. Conditions: cAMP; for activation at 10 µM: 1 h, % Induction @ 10 μM; for EC50: Emax varies between 65 to 80%. The method, then: A. In Vitro Cyclic AMP Assay:
cAMP measurements were done using a Cisbio dynamic 2 HTRF kit (Cisbio, Bedford, Mass.) according to the manufacturer's protocol. Briefly, HEK293 cells (0.2×10^6/well) were plated in a 24 well plate and incubated overnight at 37° C. Cells were transfected with either empty vector DNA or human GPR119 expression plasmid DNA using Lipofectamine 2000 (Invitrogen). After 24 h, transfected cells were harvested, counted and plated at 1000 cells/5 ul in a black 384 welled small volume plate. Cells were treated with desired concentrations of compounds and incubated for 60 min at room temperature. Lysis buffer containing cAMP-d2 and cryptate conjugate were added and incubated for 1 h. HRTF ratio was measured on a microplate reader (BMG Labtech., Germany) at an excitation wavelength of 337 nm and emission wavelengths of 665 and 620 nm with an integration time of 400 μsec. Data were analyzed using Graphpad Prism (Graphpad software; San Diego Calif.) for EC50 determination.
The results are as given in Table I as % Induction@ 10 μM, Table II as % Induction@ 10 μM and EC 50 in nM
Background: Time-resolved FRET reads energy transfer from a long-lived donor to a nearby acceptor.

The term melting point denotes the temperature, or range, at which the solid turns liquid. `CC(C)OC(=O)N1CCC(c2nc3ccc(-c4ccc(C(F)F)cc4)cc3o2)CC1` [EXAMPLE-33, Isopropyl 4-{6-[4-(difluoromethyl)phenyl]benzo[d]oxazol-2-yl}piperidine-1-carboxylate] displayed a melting point of 149 to 153 °C. In addition, the activation at 10 µM in series [1] (Table I) was found to be 10.6%.

As to `CC(C)OC(=O)N1CCC(c2nc3cc(-c4ccc(C(=O)O)cn4)ccc3o2)CC1` [EXAMPLE-34, 6-{2-[1-(isopropoxycarbonyl)piperidin-4-yl]benzo[d]oxazol-5-yl}nicotinic acid], the melting point was in the range of 239 to 242 °C.

Compound `CS(=O)(=O)N1CCC(c2nc3cc(-c4ccc(-n5cnnn5)cc4F)ccc3o2)CC1` [EXAMPLE-35, 5-[2-fluoro-4-(1H-tetrazol-1-yl)phenyl]-2-[1-(methylsulfonyl)piperidin-4-yl]benzo[d]oxazole] showed a melting point of 209 to 212 °C. For the same compound, in series [1] (Table I), the activation at 10 µM is 0.28%.

As for `CC(C)OC(=O)N1CCC(c2nc3cc(-c4ccc(C(N)=O)cn4)ccc3o2)CC1` [EXAMPLE-36, Isopropyl 4-[5-(5-carbamoylpyridin-2-yl)benzo[d]oxazol-2-yl]piperidine-1-carboxylate], the melting point lay in the range of 227 to 230 °C. Also, the activation at 10 µM in series [1] (Table I) stood at 4.83%.

With `COCCN1CCC(c2nc3cc(-c4ccc(-n5cnnn5)cc4F)ccc3o2)CC1` [EXAMPLE-41, 5-[2-fluoro-4-(1H-tetrazol-1-yl)phenyl]-2-[1-(2-methoxyethyl)piperidin-4-yl]benzo[d]oxazole], the melting point lay in the range of 148 to 152 °C.

`CC(C)(C)OC(=O)N1CC=C(c2ccc3oc(-c4ccc(S(C)(=O)=O)cc4F)nc3c2)CC1` [EXAMPLE-59, Tert-butyl 4-{2-[2-fluoro-4-(methylsulfonyl)phenyl]benzo[d]oxazol-5-yl}-5,6-dihydropyridine-1(2H)-carboxylate]: the activation at 10 µM in series [1] (Table II) was determined as 63.8%.

In general, EC50 refers to the midpoint of the concentration-response curve. Lower therefore signals a more potent agent. With `CC(C)(C)OC(=O)N1CCC(c2ccc3oc(-c4ccc(S(C)(=O)=O)cc4F)nc3c2)CC1` [EXAMPLE-60, Tert-butyl 4-{2-[2-fluoro-4-(methylsulfonyl)phenyl]benzo[d]oxazol-5-yl}piperidine-1-carboxylate], in series [1] (Table II), the activation at 10 µM was 72.8% and the EC50 was 25 to 50 nM.

The compound `CS(=O)(=O)c1ccc(-c2nc3cc(C4CCNCC4)ccc3o2)c(F)c1` [EXAMPLE-61, 2-[2-fluoro-4-(methylsulfonyl)phenyl]-5-(piperidin-4-yl)benzo[d]oxazole 2,2,2-trifluoroacetate] registered an activation at 10 µM in series [1] (Table II) of 29.8%.

On to `CCc1cnc(N2CCC(c3ccc4oc(-c5ccc(S(C)(=O)=O)cc5F)nc4c3)CC2)nc1` [EXAMPLE-62, 5-[1-(5-ethylpyrimidin-2-yl)piperidin-4-yl]-2-[2-fluoro-4-(methylsulfonyl)phenyl]benzo[d]oxazole], for which, in series [1] (Table II), the activation at 10 µM worked out at 59.3% and the EC50 is below 500 nM.

As for `CC(C)(C)OC(=O)N1CCC(c2cc(F)c3oc(-c4ccc(S(C)(=O)=O)cc4F)nc3c2)CC1` [EXAMPLE-63, Tert-butyl 4-{7-fluoro-2-[2-fluoro-4-(methylsulfonyl)phenyl]benzo[d]oxazol-5-yl}piperidine-1-carboxylate], the activation at 10 µM in series [1] (Table II) was 56.6%.

Take `CC(C)(C)OC(=O)N1CC=C(c2ccc3nc(-c4ccc(S(C)(=O)=O)cc4F)sc3c2)CC1` [EXAMPLE-65, Tert-butyl 4-{2-[2-fluoro-4-(methylsulfonyl)phenyl]benzo[d]thiazol-6-yl}-5,6-dihydropyridine-1(2H)-carboxylate]: the activation at 10 µM in series [1] (Table II) came to 32.1%.

Consider `CC(C)(C)OC(=O)N1CC=C(c2ccc3sc(-c4ccc(S(C)(=O)=O)cc4F)nc3c2)CC1` [EXAMPLE-66, Tert-butyl 4-{2-[2-fluoro-4-(methylsulfonyl)phenyl]benzo[d]thiazol-5-yl}-5,6-dihydropyridine-1(2H)-carboxylate], for which, in series [1] (Table II), the activation at 10 µM is 18.9%.

Regarding `CC(C)(C)OC(=O)N1CCC(c2ccc3nc(-c4ccc(S(C)(=O)=O)cc4F)oc3c2)CC1` [EXAMPLE-67, Tert-butyl 4-{2-[2-fluoro-4-(methylsulfonyl)phenyl]benzo[d]oxazol-6-yl}piperidine-1-carboxylate], in series [1] (Table II), the activation at 10 µM came to 73% and the EC50 lay within 25 to 50 nM.

`CC(C)(C)OC(=O)N1CCC(c2ccc3sc(-c4ccc(S(C)(=O)=O)cc4F)nc3c2)CC1` [EXAMPLE-68, Tert-butyl 4-{2-[2-fluoro-4-(methylsulfonyl)phenyl]benzo[d]thiazol-5-yl}piperidine-1-carboxylate]: the activation at 10 µM in series [1] (Table II) worked out at 72.7%.

Turning to `CCOC(=O)N1CCC(c2ccc3oc(-c4ccc(S(C)(=O)=O)cc4F)nc3c2)CC1` [EXAMPLE-69, Ethyl 4-{2-[2-fluoro-4-(methylsulfonyl)phenyl]benzo[d]oxazol-5-yl}piperidine-1-carboxylate], in series [1] (Table II), the activation at 10 µM is 71.8% and the EC50 lay in the range of 25 to 50 nM.

In series [1] (Table II), `CC(C)(C)OC(=O)N1CCC(c2ccc3oc(-c4ccc(C(F)(F)F)cc4)nc3c2)CC1` [EXAMPLE-70, Tert-butyl 4-{2-[4-(trifluoromethyl)phenyl]benzo[d]oxazol-5-yl}piperidine-1-carboxylate] came in with an activation at 10 µM of 64.7% and an EC50 of at most 25 nM.

With `CC(C)OC(=O)N1CCC(c2ccc3nc(-c4ccc(S(C)(=O)=O)cc4F)oc3c2)CC1` [EXAMPLE-71, Isopropyl 4-{2-[2-fluoro-4-(methylsulfonyl)phenyl]benzo[d]oxazol-6-yl}piperidine-1-carboxylate], in series [1] (Table II), the activation at 10 µM came to 76.6% and the concentration giving a half-maximal response (EC50) was at most 25 nM.

With `CCOC(=O)N1CCC(c2ccc3nc(-c4ccc(S(C)(=O)=O)cc4F)oc3c2)CC1` [EXAMPLE-72, Ethyl 4-{2-[2-fluoro-4-(methylsulfonyl)phenyl]benzo[d]oxazol-6-yl}piperidine-1-carboxylate], in series [1] (Table II), the activation at 10 µM was 81.6% and the EC50 is at most 25 nM.

In series [1] (Table II), `CC(C)OC(=O)N1CCC(c2ccc3sc(-c4ccc(S(C)(=O)=O)cc4F)nc3c2)CC1` [EXAMPLE-73] yielded an activation at 10 µM of 46% and an EC50 of 500 to 1000 nM.

Consider `CS(=O)(=O)c1ccc(-c2nc3cc(C4CCN(C(=O)OCc5ccccc5)CC4)ccc3o2)c(F)c1` [EXAMPLE-74, Benzyl 4-{2-[2-fluoro-4-(methylsulfonyl)phenyl]benzo[d]oxazol-5-yl}piperidine-1-carboxylate], for which, in series [1] (Table II), the activation at 10 µM was determined as 14.7%.

With `CC(C)COC(=O)N1CCC(c2ccc3oc(-c4ccc(S(C)(=O)=O)cc4F)nc3c2)CC1` [EXAMPLE-75, Isobutyl 4-{2-[2-fluoro-4-(methylsulfonyl)phenyl]benzo[d]oxazol-5-yl}piperidine-1-carboxylate], the activation at 10 µM in series [1] (Table II) was 57.5%.

In series [1] (Table II), `CC(C)OC(=O)N1CCC(c2ccc3nc(-c4ccc(S(C)(=O)=O)cc4F)sc3c2)CC1` [EXAMPLE-76, Isopropyl 4-{2-[2-fluoro-4-(methylsulfonyl)phenyl]benzo[d]thiazol-6-yl}piperidine-1-carboxylate] yielded an activation at 10 µM of 74.9% and an EC50 of 50 to 250 nM.

As for `CC(C)OC(=O)N1CCC(c2ccc3oc(-c4ccc(C(F)(F)F)cc4)nc3c2)CC1` [EXAMPLE-77, Isopropyl 4-{2-[4-(trifluoromethyl)phenyl]benzo[d]oxazol-5-yl}piperidine-1-carboxylate], in series [1] (Table II), the activation at 10 µM came to 80.4% and the EC50 lay within 50 to 250 nM.

With `Cc1ccc(-c2nc3ccc(C4CCN(C(=O)OC(C)C)CC4)cc3o2)cc1` [EXAMPLE-78, Isopropyl 4-(2-p-tolylbenzo[d]oxazol-6-yl)piperidine-1-carboxylate], in series [1] (Table II), the activation at 10 µM was found to be 59.4%.

In turn, `CS(=O)(=O)c1ccc(-c2nc3cc(C4=CCN(S(=O)(=O)CCCO)CC4)ccc3o2)c(F)c1` [EXAMPLE-79, 3-{4-[2-(2-fluoro-4-(methylsulfonyl)phenyl)benzo[d]oxazol-5-yl]-5,6-dihydropyridin-1(2H)-ylsulfonyl}propan-1-ol] came in with an activation at 10 µM in series [1] (Table II) of 46.2%.

Compound `CS(=O)(=O)c1ccc(-c2nc3cc(C4CCN(S(=O)(=O)CCCO)CC4)ccc3o2)c(F)c1` [EXAMPLE-80, 3-{4-[2-(2-fluoro-4-(methylsulfonyl)phenyl)benzo[d]oxazol-5-yl]piperidin-1-ylsulfonyl}propan-1-ol] came in with an activation at 10 µM in series [1] (Table II) of 26.4%.

Consider `CC(C)c1noc(C2CCN(c3ccc4oc(-c5ccc(S(C)(=O)=O)cc5F)nc4c3)CC2)n1` [EXAMPLE-83, 2-[2-fluoro-4-(methylsulfonyl)phenyl]-5-[4-(3-isopropyl-1,2,4-oxadiazol-5-yl)piperidin-1-yl]benzo[d]oxazole], for which the activation at 10 µM in series [1] (Table II) amounted to 57.6%.

In series [1] (Table II), `CC(C)(C)OC(=O)N1CCC(c2cnc3oc(-c4ccc(C(F)(F)F)cc4)nc3c2)CC1` [EXAMPLE-87, Tert-butyl 4-{2-[4-(trifluoromethyl)phenyl]oxazolo[5,4-b]pyridin-6-yl}piperidine-1-carboxylate] gave an activation at 10 µM of 47.3%.
